Experimental data: patent publication US8569264B2, “Antibacterial 4,5-substituted aminoglycoside analogs having multiple substituents” (ISIS Pharmaceuticals, Inc., priority 2005, dated 2013)
≈ marks a conversion by molar mass, not a printed value. Where two headings read alike, the source gives them in different places.

Key:
E. Coli = experiment: MIC, E. Coli; assay type: cell-based
Procedure: (§1) The MIC assays are carried out in 150 μL volume in duplicate in 96-well clear flat-bottom plates. The bacterial suspension from an overnight culture growth in appropriate medium is added to a solution of test compound in 4% DMSO in water. Final bacterial inoculum is approximately 10^5-10^6 CFU/well. […] Both ampicillin and tetracycline are used as antibiotic-positive controls in each screening assay for S. pyogenes, E. coli imp-, E. coli, S. aureus, E. faecalis, K. pneumoniae and P. vulgaris. Ciprofloxacin is used as an antibiotic positive control in each screening assay for P. aeruginosa.

[1] = biological target: 18S ribosomal subunit RNA target; experiment: Mass spectrometry based binding assay (FTICR), 18S
Procedure: (§2) In a typical experiment, 10 μL of an aqueous solution containing 100 mM ammonium acetate buffer, 2.5 or 5 μM of each RNA, and 33% isopropyl alcohol (to aid ion desolvation) was prepared with different concentrations of each ligand or ligand mixture Samples were introduced into the electrospray ionization source (negative ionization mode) at 1 μL/min and ions were stored for 1 sec in an RF-only hexapole following desolvation. The abundances were integrated from the respective ions for free RNA and the ligand-RNA complex. The primary (1:1 RNA:ligand) and secondary (1:2 complex, if observed). […] The peak ratios were measured at each concentration, then a plot of complex/free RNA versus concentration of ligand added was fitted to a second (or higher) order binding polynomial to determine the KD.

S. Aureus = experiment: MIC, S. Aureus; assay type: cell-based
Procedure: as §1

[2] = system: E. coli S30 bacterial extract (pBestLuc firefly luciferase reporter); experiment: Coupled bacterial transcription/translation assay; assay type: biochemical; conditions: read-out: Trans/Trans IC50
Procedure: The DNA template, pBestLuc™ (Promega), is a plasmid containing a reporter gene for firefly luciferase fused to a strong tac promoter and ribosome binding site. Messenger RNA from 1 μg pBestLuc is transcribed and translated in E. coli S30 bacterial extract in the presence or absence of test compound. Compounds are tested in a black 96 well microtiter plate with an assay volume of 35 μL. […] The transcription/translation reaction is incubated for 35 minutes at 37° C. followed by detection of functional luciferase with the addition of 30 μL LucLite™ (Packard). Light output is quantitated on a Packard TopCount.

[3] = biological target: 16S ribosomal subunit RNA target; experiment: Mass spectrometry based binding assay (FTICR), 16S
Procedure: as §2, with “[…],” for “2.5 or 5 μM of each RNA,”

[4] = FTICR mass spectrometry, Example 105
[5] = FTICR mass spectrometry, run at 100 nM RNA, Example 105

Row | Structure (SMILES) | Kd [1, 4] | IC50 ([2]; Example 105) | Kd [3, 5] | MIC E. Coli. (E. Coli; Example 108) | Kd ([1]; Example 108) | MIC S. Aureus (S. Aureus; Example 108) | IC50 ([2]; Example 108) | Kd ([3]; Example 108) | further results
1 | NCC1OC(OC2C(CO)OC(OC3C(O)C(N)CC(N)C3OC3OC(CO)C(O)C(O)C3N)C2OCCN(CCc2ccccc2)C(=O)c2ccccc2)C(N)C(O)C1O (centres unmarked) [Compound 10] | – | – | – | – | – | – | – | – | MIC E. Coli. (E. Coli; Example 106): 10 to 20 µM; Kd ([1]; Example 106): 2500 nM; MIC S. Aureus (S. Aureus; Example 106): 3 to 5 µM; IC50 ([2]; Example 106): 400 nM; Kd ([3]; Example 106): 3900 nM
2 | CC(=O)N(CCOC1C(OC2C(O)C(N)CC(N)C2OC2OC(CO)C(O)C(O)C2N)OC(CO)C1OC1OC(CN)C(O)C(O)C1N)CCc1ccccc1 (centres unmarked) [Compound 11] | – | – | – | – | – | – | – | – | MIC E. Coli. (E. Coli; Example 106): 10 to 20 µM; Kd ([1]; Example 106): 6100 nM; MIC S. Aureus (S. Aureus; Example 106): 1 to 3 µM; IC50 ([2]; Example 106): 400 nM; Kd ([3]; Example 106): 1500 nM
3 | NC[C@@H]1O[C@H](O[C@H]2[C@@H](OCCO)[C@H](O[C@@H]3[C@@H](O)[C@H](N)C[C@H](N)[C@H]3O[C@H]3O[C@H](CO)[C@@H](O)[C@H](O)[C@H]3N)O[C@@H]2CO)[C@H](N)[C@@H](O)[C@@H]1O [Compound 12a] | 7300 nM | 100 nM | 900 nM | – | – | – | – | – | MIC E. Coli. (E. Coli; Example 105): 12 to 25 µM; MIC S. Aureus (S. Aureus; Example 105): 6 to 12 µM
4 | NC[C@@H]1O[C@H](O[C@H]2[C@@H](OCCCCCc3ccccc3)[C@H](O[C@@H]3[C@@H](O)[C@H](N)C[C@H](N)[C@H]3O[C@H]3O[C@H](CO)[C@@H](O)[C@H](O)[C@H]3N)O[C@@H]2CO)[C@H](N)[C@@H](O)[C@@H]1O [Compound 14c] | 59000 nM | 200 nM | 40000 nM | – | – | – | – | – | MIC (E. Coli; Escherichia coli, Example 105): 10 to 20 µM (≈ 7.62 to 15.2 µg/mL); MIC E. Coli. (E. Coli; Example 107): 10 to 20 µM; MIC S. Aureus (S. Aureus; Example 107): 3 to 5 µM; MIC (S. Aureus; Staphylococcus aureus, Example 105): 3 to 5 µM (≈ 2.29 to 3.81 µg/mL)
5 | NCCCNCC1OC(OC2C(N)CC(N)C(O)C2OC2OC(CO)C(OC3OC(CN)C(O)C(O)C3N)C2O)C(N)C(O)C1O (centres unmarked) [Compound 15b] | – | – | – | 2.5-5^ uM | 1400 nM | 1.3 to 2.5 µM | 200 nM | 1600 nM | –
6 | NCC1OC(OC2C(CO)OC(OC3C(O)C(N)CC(N)C3OC3OC(CN4CCOCC4)C(O)C(O)C3N)C2O)C(N)C(O)C1O (centres unmarked) [Compound 15c] | – | – | – | 20 to 40 µM | 3000 nM | 10 to 20 µM | 300 nM | 3600 nM | –
7 | CC(C)(C)OC(=O)NNCC1OC(OC2C(N)CC(N)C(O)C2OC2OC(CO)C(OC3OC(CN)C(O)C(O)C3N)C2O)C(N)C(O)C1O (centres unmarked) [Compound 15d] | – | – | – | 6 to 12 µM | 1400 nM | 12 to 25 µM | 300 nM | 10 nM | –
8 | CNCC1OC(OC2C(N)CC(N)C(O)C2OC2OC(CO)C(OC3OC(CN)C(O)C(O)C3N)C2O)C(N)C(O)C1O (centres unmarked) [Compound 15e] | – | – | – | 2 to 3 µM | 1200 nM | 2 to 3 µM | 200 nM | 400 nM | –
9 | CC(C)NCC1OC(OC2C(N)CC(N)C(O)C2OC2OC(CO)C(OC3OC(CN)C(O)C(O)C3N)C2O)C(N)C(O)C1O (centres unmarked) [Compound 15h] | – | – | – | 2.5-5^ uM | 1200 nM | 1.3 to 2.5 µM | 200 nM | 1200 nM | –
10 | NCC1OC(OC2C(CO)OC(OC3C(O)C(N)CC(N)C3OC3OC(CNN)C(O)C(O)C3N)C2O)C(N)C(O)C1O (centres unmarked) [Compound 15i] | – | – | – | 12 to 25 µM | 1700 nM | 3 to 6 µM | 200 nM | 600 nM | –
11 | NCCOC1C(OC2C(O)C(N)CC(N)C2OC2OC(CO)C(O)C(O)C2N)OC(CO)C1O (centres unmarked) [Compound 30a] | 58000 nM | 200 nM | 19000 nM | – | – | – | – | – | MIC E. Coli. (E. Coli; Example 105): 6 to 12 µM; MIC S. Aureus (S. Aureus; Example 105): 12 to 25 µM
12 | NCCCNCCOC1C(OC2C(O)C(N)CC(N)C2OC2OC(CO)C(O)C(O)C2N)OC(CO)C1O (centres unmarked) [Compound 30b] | 18000 nM | 100 nM | 9200 nM | – | – | – | – | – | MIC E. Coli. (E. Coli; Example 105): 6 to 12 µM; MIC S. Aureus (S. Aureus; Example 105): 6 to 12 µM
